Our source for the activity and IC50 values is ChEMBL document CHEMBL2074007, “Characterization of the transport of nucleoside analog drugs by the human multidrug resistance proteins MRP4 and MRP5” (Mol Pharmacol, 2003).

The target of one data set is MRP5 (ABCC5) (Homo sapiens, UniProt O15440). Put plainly: TP_TRANSPORTER: inhibition of alaninyl-d4TMP uptake (alaninyl-d4TMP: 1 uM, Zaprinast: 100uM) in MRP5-expressing HEK293 cells. It counts as functional, cell-based. Conditions: probe alaninyl-d4TMP (1 uM), read-out: Activity. Details: scale not given: the % may be the effect or the level left.
Sequence of MRP5 (ABCC5) (O15440 whole entry): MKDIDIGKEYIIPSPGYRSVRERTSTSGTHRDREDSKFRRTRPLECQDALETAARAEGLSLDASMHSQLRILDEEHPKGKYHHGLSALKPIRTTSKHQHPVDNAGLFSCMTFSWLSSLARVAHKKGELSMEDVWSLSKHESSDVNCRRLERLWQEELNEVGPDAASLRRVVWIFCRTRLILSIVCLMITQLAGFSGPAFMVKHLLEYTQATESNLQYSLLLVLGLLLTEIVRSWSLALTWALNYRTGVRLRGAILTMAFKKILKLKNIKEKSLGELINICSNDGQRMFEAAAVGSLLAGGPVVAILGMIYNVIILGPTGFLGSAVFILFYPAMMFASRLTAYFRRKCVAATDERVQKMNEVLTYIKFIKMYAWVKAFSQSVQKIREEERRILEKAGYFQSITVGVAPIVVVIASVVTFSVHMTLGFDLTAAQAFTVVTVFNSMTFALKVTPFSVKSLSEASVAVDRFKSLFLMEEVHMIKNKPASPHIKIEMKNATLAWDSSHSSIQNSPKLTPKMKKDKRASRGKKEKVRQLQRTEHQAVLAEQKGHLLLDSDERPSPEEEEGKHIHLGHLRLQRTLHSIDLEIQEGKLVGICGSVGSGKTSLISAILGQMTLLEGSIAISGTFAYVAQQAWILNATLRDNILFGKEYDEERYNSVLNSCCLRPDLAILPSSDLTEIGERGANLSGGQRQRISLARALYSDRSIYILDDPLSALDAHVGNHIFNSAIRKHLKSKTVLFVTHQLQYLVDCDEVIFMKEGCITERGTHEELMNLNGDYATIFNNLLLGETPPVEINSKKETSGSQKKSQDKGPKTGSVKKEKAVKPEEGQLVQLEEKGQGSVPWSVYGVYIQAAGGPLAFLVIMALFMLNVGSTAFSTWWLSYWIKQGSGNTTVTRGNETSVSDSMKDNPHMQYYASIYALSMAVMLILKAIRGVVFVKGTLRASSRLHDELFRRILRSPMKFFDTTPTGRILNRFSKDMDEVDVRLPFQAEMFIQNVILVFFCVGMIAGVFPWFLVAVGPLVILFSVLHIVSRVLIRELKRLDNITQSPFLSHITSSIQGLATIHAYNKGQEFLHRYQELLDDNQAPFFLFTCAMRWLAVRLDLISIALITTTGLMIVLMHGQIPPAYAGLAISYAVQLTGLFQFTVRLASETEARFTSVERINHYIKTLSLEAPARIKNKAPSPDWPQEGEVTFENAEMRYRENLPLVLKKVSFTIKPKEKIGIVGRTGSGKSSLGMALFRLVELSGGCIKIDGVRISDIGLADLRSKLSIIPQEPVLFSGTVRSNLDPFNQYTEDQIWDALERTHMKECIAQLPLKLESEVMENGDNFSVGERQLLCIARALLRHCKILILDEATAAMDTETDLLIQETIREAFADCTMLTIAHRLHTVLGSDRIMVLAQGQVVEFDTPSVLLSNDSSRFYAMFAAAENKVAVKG
A further data set deals with T1, MRP4 (ABCC4) (Homo sapiens, UniProt O15439).
T1 sequence (O15439 whole entry): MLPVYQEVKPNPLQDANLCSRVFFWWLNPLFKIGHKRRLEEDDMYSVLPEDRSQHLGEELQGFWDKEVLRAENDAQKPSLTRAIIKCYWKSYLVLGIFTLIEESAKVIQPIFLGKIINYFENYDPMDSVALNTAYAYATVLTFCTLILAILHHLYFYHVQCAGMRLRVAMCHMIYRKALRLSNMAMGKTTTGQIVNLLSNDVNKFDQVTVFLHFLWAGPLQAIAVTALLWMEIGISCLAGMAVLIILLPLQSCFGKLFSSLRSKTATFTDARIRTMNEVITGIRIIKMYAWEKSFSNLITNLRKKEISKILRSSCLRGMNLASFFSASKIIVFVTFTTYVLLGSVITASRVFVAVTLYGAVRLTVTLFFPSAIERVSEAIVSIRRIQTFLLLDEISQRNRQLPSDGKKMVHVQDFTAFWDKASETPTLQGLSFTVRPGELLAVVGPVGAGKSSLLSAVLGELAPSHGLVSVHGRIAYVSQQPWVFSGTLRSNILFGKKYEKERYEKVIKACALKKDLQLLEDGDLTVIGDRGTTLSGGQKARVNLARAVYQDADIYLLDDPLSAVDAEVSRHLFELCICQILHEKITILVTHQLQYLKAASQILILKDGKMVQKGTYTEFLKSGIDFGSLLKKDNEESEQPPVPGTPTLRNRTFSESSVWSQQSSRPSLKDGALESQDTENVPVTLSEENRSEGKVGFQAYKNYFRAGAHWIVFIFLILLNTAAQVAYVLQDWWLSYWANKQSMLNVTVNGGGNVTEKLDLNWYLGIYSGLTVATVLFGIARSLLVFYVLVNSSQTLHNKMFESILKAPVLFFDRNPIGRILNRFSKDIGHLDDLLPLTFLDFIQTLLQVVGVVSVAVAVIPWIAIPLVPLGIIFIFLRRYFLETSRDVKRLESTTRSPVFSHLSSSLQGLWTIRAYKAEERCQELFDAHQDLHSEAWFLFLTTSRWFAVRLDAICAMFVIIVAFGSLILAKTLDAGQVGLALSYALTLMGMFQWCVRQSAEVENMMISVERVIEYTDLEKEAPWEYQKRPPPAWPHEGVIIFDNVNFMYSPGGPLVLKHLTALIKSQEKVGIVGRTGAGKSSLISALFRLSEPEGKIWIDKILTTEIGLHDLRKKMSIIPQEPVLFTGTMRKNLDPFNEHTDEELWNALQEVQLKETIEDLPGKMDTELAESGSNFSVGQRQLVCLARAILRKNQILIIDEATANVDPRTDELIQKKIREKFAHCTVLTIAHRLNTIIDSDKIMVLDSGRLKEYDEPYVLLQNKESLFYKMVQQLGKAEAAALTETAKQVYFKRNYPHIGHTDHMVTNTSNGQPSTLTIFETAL
The data set can be described thus: TP_TRANSPORTER: inhibition of E217betaG uptake (E217betaG: 30 uM, Zaprinast: 100uM) in MRP4-expressing HEK293 cells. It is filed as functional, cell-based. Details: scale not given: the % may be the effect or the level left. Conditions: probe E217betaG (30 uM), read-out: Activity.

Data set [1] addresses T2, ATP-binding cassette sub-family C member 4 (Homo sapiens, UniProt O15439).
T2 sequence (O15439 whole entry): T1 sequence (O15439 whole entry)
It is filed as functional, cell-based, HEK293.

For data set [2], the target named is ATP-binding cassette sub-family C member 5 (Homo sapiens, UniProt O15440). It is filed as functional, cell-based, HEK293.
Sequence of ATP-binding cassette sub-family C member 5 (O15440 whole entry): as the sequence (O15440 whole entry) above

In general, IC50 refers to the concentration at which inhibition is half-maximal.

In the case of `Nc1nc2c(ncn2[C@@H]2O[C@@H]3COP(=O)(O)O[C@H]3[C@H]2O)c(=O)[nH]1`, the activity at 100 µM is 37% on MRP5 (ABCC5) and 48% on MRP4 (ABCC4).

On to `COc1cc(C(=O)OCCCN2CCCN(CCCOC(=O)c3cc(OC)c(OC)c(OC)c3)CC2)cc(OC)c1OC` [DILAZEP], for which the IC50 in data set [1] was 20 µM; in data set [2], greater than 50 µM.

For `CN(C)C(=O)CCSC(SCCC(=O)O)c1cccc(/C=C/c2ccc3ccc(Cl)cc3n2)c1` (stereo not given) [MK-571], the IC50 in data set [2] is 40 µM.

With `O=[N+]([O-])c1ccc(CSc2ncnc3c2ncn3[C@@H]2O[C@H](CO)[C@@H](O)[C@H]2O)cc1` [NITROBENZYLMERCAPTOPURINE RIBONUCLEOSIDE], the 50% inhibitory concentration (IC50) in data set [1] stood at 75 µM.

As to `COc1cc2c(cc1OC)-c1c/c(=N\c3c(C)cc(C)cc3C)n(C)c(=O)n1CC2` [TREQUINSIN], the IC50 in data set [1] amounted to 10 µM; in data set [2], 30 µM.

With `CCCOc1ccccc1-c1nc2nn[nH]c2c(=O)[nH]1` [ZAPRINAST], the activity at 100 µM at MRP5 (ABCC5) was found to be 12%; on MRP4 (ABCC4), 7%.
